Legend:
Assay type in all cases: biochemical
[1] = test system: human JAK1 (a.a. 837-1142) catalytic domain; test: In vitro JAK kinase assay (HTRF, 1 mM ATP), JAK1; conditions: ratio of JAK2 IC50 to JAK1 IC50 at 1 mM ATP;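 also: kinase activity followed as phosphorylation of a biotin-tagged peptide, detected by HTRF with Eu-labelled anti-phosphotyrosine antibody and SA-APC, after 1 h reaction at room temperature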
Protocol: (§1) The catalytic activity of JAK1, JAK2 or JAK3 was assayed by measuring the phosphorylation of a biotinylated peptide. The phosphorylated peptide was detected by homogenous time resolved fluorescence (HTRF). […] Reactions were carried out at room temperature for 1 hour and then stopped with 20 μL 45 mM EDTA, 300 nM SA-APC, 6 nM Eu-Py20 in assay buffer (Perkin Elmer, Boston, Mass.). Binding to the Europium labeled antibody took place for 40 minutes and HTRF signal was measured on a Fusion plate reader (Perkin Elmer, Boston, Mass.).

[2] = biological target: human JAK1 (a.a. 837-1142) catalytic domain (Homo sapiens, UniProt P23458); test: In vitro JAK kinase assay (HTRF, 1 mM ATP), JAK1; conditions: at 1 mM ATP;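 also: kinase activity followed as phosphorylation of a biotin-tagged peptide, detected by HTRF with Eu-labelled anti-phosphotyrosine antibody and SA-APC, after 1 h reaction at room temperature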
Protocol: as §1

[3] = biological target: human JAK2 (a.a. 828-1132) catalytic domain (Homo sapiens (Human), UniProt O60674); test: In vitro JAK kinase assay (HTRF, 1 mM ATP), JAK2; conditions: at 1 mM ATP
human JAK2 (a.a. 828-1132) catalytic domain, sequence (O60674 828-1132): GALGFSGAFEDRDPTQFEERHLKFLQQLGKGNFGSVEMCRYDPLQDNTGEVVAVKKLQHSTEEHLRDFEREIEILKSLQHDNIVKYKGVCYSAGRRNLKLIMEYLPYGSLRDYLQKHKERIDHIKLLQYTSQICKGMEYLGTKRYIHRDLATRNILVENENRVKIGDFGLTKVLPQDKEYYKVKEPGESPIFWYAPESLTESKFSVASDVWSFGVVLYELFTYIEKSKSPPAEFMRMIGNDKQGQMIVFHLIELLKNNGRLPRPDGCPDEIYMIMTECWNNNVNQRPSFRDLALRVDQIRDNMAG
Protocol: as §1

human JAK1 (a.a. 837-1142) catalytic domain (Homo sapiens, UniProt P23458), sequence (P23458 whole entry, looked up, the tested form may be a part): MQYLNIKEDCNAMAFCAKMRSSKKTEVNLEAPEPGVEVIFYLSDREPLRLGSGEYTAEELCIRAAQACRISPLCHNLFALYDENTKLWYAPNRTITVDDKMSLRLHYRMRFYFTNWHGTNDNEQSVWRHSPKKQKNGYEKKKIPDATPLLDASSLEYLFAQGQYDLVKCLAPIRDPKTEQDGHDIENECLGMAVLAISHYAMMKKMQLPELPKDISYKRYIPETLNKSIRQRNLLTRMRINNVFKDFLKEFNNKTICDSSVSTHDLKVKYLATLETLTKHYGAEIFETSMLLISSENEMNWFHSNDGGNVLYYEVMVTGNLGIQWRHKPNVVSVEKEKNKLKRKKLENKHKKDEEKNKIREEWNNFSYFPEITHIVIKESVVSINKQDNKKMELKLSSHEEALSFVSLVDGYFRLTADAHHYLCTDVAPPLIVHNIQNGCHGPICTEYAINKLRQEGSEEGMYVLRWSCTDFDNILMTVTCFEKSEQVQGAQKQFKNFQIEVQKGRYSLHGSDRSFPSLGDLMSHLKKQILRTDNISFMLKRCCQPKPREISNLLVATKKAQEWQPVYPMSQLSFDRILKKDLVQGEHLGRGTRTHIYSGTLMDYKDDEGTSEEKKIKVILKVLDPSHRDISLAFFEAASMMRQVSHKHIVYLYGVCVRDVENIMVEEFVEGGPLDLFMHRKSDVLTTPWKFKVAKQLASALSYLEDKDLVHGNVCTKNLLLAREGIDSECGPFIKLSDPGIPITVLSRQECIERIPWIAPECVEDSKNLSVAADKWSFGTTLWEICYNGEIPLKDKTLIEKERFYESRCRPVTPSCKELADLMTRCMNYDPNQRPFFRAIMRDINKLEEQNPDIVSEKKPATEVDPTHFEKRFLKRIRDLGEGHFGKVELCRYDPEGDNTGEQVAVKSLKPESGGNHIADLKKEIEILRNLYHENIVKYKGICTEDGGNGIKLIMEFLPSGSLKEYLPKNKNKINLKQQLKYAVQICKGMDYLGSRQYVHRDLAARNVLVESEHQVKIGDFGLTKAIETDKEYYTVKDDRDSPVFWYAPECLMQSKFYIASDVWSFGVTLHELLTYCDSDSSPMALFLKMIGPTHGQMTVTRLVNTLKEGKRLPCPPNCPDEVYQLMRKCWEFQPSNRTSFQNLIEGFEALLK

| Compound | JAK2/JAK1 [1] | IC50 [2] | IC50 [3] |
| --- | --- | --- | --- |
| C[C@H](NC(=O)c1ccc(N2CC(CC#N)(n3cc(-c4ncnc5[nH]ccc45)cn3)C2)cc1F)C(F)(F)F [Example 22, 4-{3-(Cyanomethyl)-3-[4-(7H-pyrrolo[2,3-d]pyrimidin-4-yl)-1H-pyrazol-1-yl]azetidin-1-yl}-2-fluoro-N-[(1S)-2,2,2-trifluoro-1-methylethyl]benzamide] | A (A means greater than or equal to 10) | < 10 nM | 10 to 40 nM |
| CCNC(=O)c1ccc(N2CC(CC#N)(n3cc(-c4ncnc5[nH]ccc45)cn3)C2)cn1 [Example 24, 5-{3-(Cyanomethyl)-3-[4-(7H-pyrrolo[2,3-d]pyrimidin-4-yl)-1H-pyrazol-1-yl]azetidin-1-yl}-N-ethylpyridine-2-carboxamide] | A (A means greater than or equal to 10) | < 10 nM | ≤ 10 nM |
| CC[C@@H](C)NC(=O)c1ccc(N2CC(CC#N)(n3cc(-c4ncnc5[nH]ccc45)cn3)C2)cc1 [Example 25, 4-{3-(Cyanomethyl)-3-[4-(7H-pyrrolo[2,3-d]pyrimidin-4-yl)-1H-pyrazol-1-yl]azetidin-1-yl}-N-[(1R)-1-methylpropyl]benzamide bis(trifluoroacetate)] | A (A means greater than or equal to 10) | < 10 nM | ≤ 10 nM |
| CC(C)NC(=O)c1ccc(N2CC(CC#N)(n3cc(-c4ccnc5[nH]ccc45)cn3)C2)c(F)c1 [Example 27, 4-{3-(Cyanomethyl)-3-[4-(1H-pyrrolo[2,3-b]pyridin-4-yl)-1H-pyrazol-1-yl]azetidin-1-yl}-3-fluoro-N-isopropylbenzamide] | A (A means greater than or equal to 10) | < 10 nM | ≤ 10 nM |
| C[C@H](NC(=O)c1cc(F)c(N2CC(CC#N)(n3cc(-c4ncnc5[nH]ccc45)cn3)C2)cc1F)C(F)(F)F [Example 28, 4-{3-(Cyanomethyl)-3-[4-(7H-pyrrolo[2,3-d]pyrimidin-4-yl)-1H-pyrazol-1-yl]azetidin-1-yl}-2,5-difluoro-N-[(1S)-2,2,2-trifluoro-1-methylethyl]benzamide] | A (A means greater than or equal to 10) | < 10 nM | ≤ 10 nM |
| C[C@@H](NC(=O)c1cc(F)c(N2CC(CC#N)(n3cc(-c4ncnc5[nH]ccc45)cn3)C2)cc1F)C(F)(F)F [Example 29, 4-{3-(Cyanomethyl)-3-[4-(7H-pyrrolo[2,3-d]pyrimidin-4-yl)-1H-pyrazol-1-yl]azetidin-1-yl}-2,5-difluoro-N-[(1R)-2,2,2-trifluoro-1-methylethyl]benzamide] | A (A means greater than or equal to 10) | < 10 nM | ≤ 10 nM |
| C[C@@H](NC(=O)c1cnc(N2CC(CC#N)(n3cc(-c4ncnc5[nH]ccc45)cn3)C2)cn1)C(F)(F)F [Example 30, 5-{3-(Cyanomethyl)-3-[4-(7H-pyrrolo[2,3-d]pyrimidin-4-yl)-1H-pyrazol-1-yl]azetidin-1-yl}-N-[(1R)-2,2,2-trifluoro-1-methylethyl]pyrazine-2-carboxamide] | A (A means greater than or equal to 10) | < 10 nM | 10 to 40 nM |
| C[C@H](NC(=O)c1cnc(N2CC(CC#N)(n3cc(-c4ncnc5[nH]ccc45)cn3)C2)cn1)C(F)(F)F [Example 31, 5-{3-(Cyanomethyl)-3-[4-(7H-pyrrolo[2,3-d]pyrimidin-4-yl)-1H-pyrazol-1-yl]azetidin-1-yl}-N-[(1S)-2,2,2-trifluoro-1-methylethyl]pyrazine-2-carboxamide] | A (A means greater than or equal to 10) | < 10 nM | ≤ 10 nM |
| N#CCC1(n2cc(-c3ncnc4[nH]ccc34)cn2)CN(c2cnc(C(=O)N[C@@H](C3CC3)C(F)(F)F)cn2)C1 [Example 32, 5-{3-(Cyanomethyl)-3-[4-(7H-pyrrolo[2,3-d]pyrimidin-4-yl)-1H-pyrazol-1-yl]azetidin-1-yl}-N-[(1S)-1-cyclopropyl-2,2,2-trifluoroethyl]pyrazine-2-carboxamide] | A (A means greater than or equal to 10) | < 10 nM | ≤ 10 nM |
| N#CCC1(n2cc(-c3ncnc4[nH]ccc34)cn2)CN(c2cnc(C(=O)NC3(C(F)(F)F)CC3)cn2)C1 [Example 33, 5-{3-(Cyanomethyl)-3-[4-(7H-pyrrolo[2,3-d]pyrimidin-4-yl)-1H-pyrazol-1-yl]azetidin-1-yl}-N-[1-(trifluoromethyl)cyclopropyl]pyrazine-2-carboxamide] | A (A means greater than or equal to 10) | < 10 nM | 10 to 40 nM |
| C[C@H](NC(=O)c1cnc(N2CC(CC#N)(n3cc(-c4ccnc5[nH]ccc45)cn3)C2)cn1)C(F)(F)F [Example 35, 5-{3-(Cyanomethyl)-3-[4-(1H-pyrrolo[2,3-b]pyridin-4-yl)-1H-pyrazol-1-yl]azetidin-1-yl}-N-[(1S)-2,2,2-trifluoro-1-methylethyl]pyrazine-2-carboxamide] | A (A means greater than or equal to 10) | < 10 nM | 10 to 40 nM |
| N#CCC1(n2cc(-c3ccnc4[nH]ccc34)cn2)CN(c2cnc(C(=O)NCC(F)(F)F)cn2)C1 [Example 36, 5-{3-(Cyanomethyl)-3-[4-(1H-pyrrolo[2,3-b]pyridin-4-yl)-1H-pyrazol-1-yl]azetidin-1-yl}-N-(2,2,2-trifluoroethyl)pyrazine-2-carboxamide] | A (A means greater than or equal to 10) | < 10 nM | 10 to 40 nM |
| N#CCC1(n2cc(-c3ncnc4[nH]ccc34)cn2)CN(c2cc(F)c(C(=O)NCC(F)F)cc2F)C1 [Example 37, 4-{3-(Cyanomethyl)-3-[4-(7H-pyrrolo[2,3-d]pyrimidin-4-yl)-1H-pyrazol-1-yl]azetidin-1-yl}-N-(2,2-difluoroethyl)-2,5-difluorobenzamide] | A (A means greater than or equal to 10) | < 10 nM | ≤ 10 nM |
| N#CCC1(n2cc(-c3ncnc4[nH]ccc34)cn2)CN(c2ccc(C(=O)N[C@@H](C3CC3)C(F)(F)F)cc2)C1 [Example 38, 4-{3-(Cyanomethyl)-3-[4-(7H-pyrrolo[2,3-d]pyrimidin-4-yl)-1H-pyrazol-1-yl]azetidin-1-yl}-N-[(1S)-1-cyclopropyl-2,2,2-trifluoroethyl]benzamide] | A (A means greater than or equal to 10) | < 10 nM | 10 to 40 nM |
| C[C@@H](NC(=O)c1ccc(N2CC(CC#N)(n3cc(-c4ncnc5[nH]ccc45)cn3)C2)cc1F)C1CC1 [Example 39, 4-{3-(Cyanomethyl)-3-[4-(7H-pyrrolo[2,3-d]pyrimidin-4-yl)-1H-pyrazol-1-yl]azetidin-1-yl}-N-[(1R)-1-cyclopropylethyl]-2-fluorobenzamide] | A (A means greater than or equal to 10) | < 10 nM | 10 to 40 nM |
| N#CCC1(n2cc(-c3ccnc4[nH]ccc34)cn2)CN(c2ccc(C(=O)NC3(C(F)(F)F)CC3)nc2)C1 [Example 40, 5-{3-(Cyanomethyl)-3-[4-(1H-pyrrolo[2,3-b]pyridin-4-yl)-1H-pyrazol-1-yl]azetidin-1-yl}-N-[1-(trifluoromethyl)cyclopropyl]pyridine-2-carboxamide] | A (A means greater than or equal to 10) | < 10 nM | 10 to 40 nM |
| C[C@H](NC(=O)c1cnc(N2CC(CC#N)(n3cc(-c4ccnc5[nH]ccc45)cn3)C2)cn1)C1CC1 [Example 41, 5-{3-(Cyanomethyl)-3-[4-(1H-pyrrolo[2,3-b]pyridin-4-yl)-1H-pyrazol-1-yl]azetidin-1-yl}-N-[(1S)-1-cyclopropylethyl]pyrazine-2-carboxamide] | A (A means greater than or equal to 10) | < 10 nM | 10 to 40 nM |
| N#CCC1(n2cc(-c3ccnc4[nH]ccc34)cn2)CN(c2cnc(C(=O)N[C@@H](C3CC3)C(F)(F)F)cn2)C1 [Example 42, 5-{3-(Cyanomethyl)-3-[4-(1H-pyrrolo[2,3-b]pyridin-4-yl)-1H-pyrazol-1-yl]azetidin-1-yl}-N-[(1S)-1-cyclopropyl-2,2,2-trifluoroethyl]pyrazine-2-carboxamide] | A (A means greater than or equal to 10) | < 10 nM | 10 to 40 nM |
